This passage reports IC50 results from patent publication US20180148418A1, “AMIDO-SUBSTITUTED CYCLOHEXANE DERIVATIVES” (Bayer Pharma Aktiengesellschaft, priority 2015, published 2018).

Test [1] concerns wildtype Wnt signaling cascade. Briefly: HEK293 TOP assay (Super TopFlash luciferase reporter, Wnt-3a stimulated). It counts as cell-based. Particulars: HEK293 TOP reporter cells, Wnt3a at EC50, 16 hours. In outline: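 HEK293 cells stably carrying Super TopFlash (TOP) run in parallel with FOP cells, 10000/well plated 24 h ahead, stimulated with recombinant human Wnt-3a. Compounds tested 50 μM to 15 nM in 3.16-fold steps in CAFTY buffer pH 7.4 with 2 mM Ca^2+ and 0.01% BSA; luciferase read-out.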
A general note: Reporter assays use an easily measured gene product as a stand-in for the process of interest.

A further test concerns the target T1, TNKS2 (Homo sapiens, UniProt Q9H2K2).
T1 construct: purchased BPS Bioscience, San Diego, USA 80572 (TNKS2 Histone Ribosylation Assay Kit)
T1 sequence (Q9H2K2 1-1166): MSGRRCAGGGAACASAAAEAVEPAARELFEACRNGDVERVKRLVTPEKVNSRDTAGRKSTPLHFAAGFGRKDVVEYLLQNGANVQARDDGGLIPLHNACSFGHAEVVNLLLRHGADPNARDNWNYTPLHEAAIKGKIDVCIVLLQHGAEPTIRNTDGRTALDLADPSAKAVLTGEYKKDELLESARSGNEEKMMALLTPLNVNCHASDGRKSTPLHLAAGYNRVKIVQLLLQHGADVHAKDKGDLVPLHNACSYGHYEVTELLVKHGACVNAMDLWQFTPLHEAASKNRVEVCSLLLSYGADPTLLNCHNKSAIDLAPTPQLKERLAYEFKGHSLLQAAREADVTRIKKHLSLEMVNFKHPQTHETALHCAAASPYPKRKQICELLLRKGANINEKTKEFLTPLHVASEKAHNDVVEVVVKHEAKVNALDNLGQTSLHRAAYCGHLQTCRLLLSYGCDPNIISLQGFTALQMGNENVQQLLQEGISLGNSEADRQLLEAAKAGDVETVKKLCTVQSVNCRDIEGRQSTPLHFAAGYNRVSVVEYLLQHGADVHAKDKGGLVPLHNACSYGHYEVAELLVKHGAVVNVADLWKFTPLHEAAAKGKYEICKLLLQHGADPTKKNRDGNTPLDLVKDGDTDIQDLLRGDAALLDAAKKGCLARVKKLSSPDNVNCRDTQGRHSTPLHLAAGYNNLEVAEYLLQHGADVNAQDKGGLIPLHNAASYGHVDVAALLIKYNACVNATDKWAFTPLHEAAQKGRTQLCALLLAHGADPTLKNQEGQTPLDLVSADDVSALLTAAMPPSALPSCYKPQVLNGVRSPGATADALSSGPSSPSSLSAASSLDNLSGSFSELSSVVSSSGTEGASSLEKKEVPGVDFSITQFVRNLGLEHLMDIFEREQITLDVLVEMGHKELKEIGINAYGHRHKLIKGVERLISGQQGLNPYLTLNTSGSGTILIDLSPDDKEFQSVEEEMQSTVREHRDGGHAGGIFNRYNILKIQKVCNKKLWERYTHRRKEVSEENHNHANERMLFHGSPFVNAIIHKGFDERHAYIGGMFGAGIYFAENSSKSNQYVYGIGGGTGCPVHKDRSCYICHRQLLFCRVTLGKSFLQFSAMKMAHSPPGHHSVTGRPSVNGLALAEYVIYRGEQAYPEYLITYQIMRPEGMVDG
The test can be described thus: TNKS2 Assay B (auto-parsylation, [3H]-NAD+ SPA). It counts as biochemical. Conditions: 6 nM TNKS2, auto-parsylation, over night at room temperature.

pIC50: −log10 of the molar value.

By pIC50 is commonly meant the IC50 on a negative log10 scale, so that one unit is a factor of ten.

For the molecule `CC(O)CNc1ccc2ncc(C(=O)N[C@H]3CC[C@H](C(=O)Nc4ccc(F)cc4Cl)CC3)n2n1` (stereo partly drawn) [Example 114, N-{trans-4-[(2-chloro-4-fluorophenyl)carbamoyl]cyclohexyl}-6-[(2-hydroxypropyl)amino]imidazo[1,2-b]pyridazine-3-carboxamide], the pIC50 in test [1] (Homo sapiens, HEK293, 16 h) is 5.80; against TNKS2, 6.32.
As for `O=C(N[C@H]1CC[C@H](C(=O)Nc2cc(F)c(F)cc2Cl)CC1)c1cnn2cccnc12` [Example 130, N-{trans-4-[(2-chloro-4,5-difluorophenyl)carbamoyl]cyclohexyl}pyrazolo[1,5-a]pyrimidine-3-carboxamide], the pIC50 is 7.66 in test [1] (Homo sapiens, HEK293, 16 h) and 7.74 against TNKS2.
For `O=C(NCCC1CC1)c1nc[nH]c1C(=O)N[C@H]1CC[C@H](C(=O)Nc2cc(N3CCOCC3)ccc2Cl)CC1` [Example 93, N^5-(trans-4-{[2-chloro-5-(morpholin-4-yl)phenyl]carbamoyl}cyclohexyl)-N^4-(2-cyclopropylethyl)-1H-imidazole-4,5-dicarboxamide], in that order: 5.82 and 5.80.
As for `Cc1c(C(C)N(C)C)cnc2c(C(=O)N[C@H]3CC[C@H](C(=O)Nc4ccc(F)cc4Cl)CC3)cnn12` (single isomer, unassigned) [Example 56, N-{trans-4-[(2-chloro-4-fluorophenyl)carbamoyl]cyclohexyl}-6-[1-(dimethylamino)ethyl]-7-methylpyrazolo[1,5-a]pyrimidine-3-carboxamide], the pIC50 in test [1] was 6.00; on TNKS2, 6.43.
For the molecule `O=C(NC12CCC(C(=O)Nc3ccc(F)cc3Cl)(CC1)CC2)c1cnc2cccnn12` [Example 121, N-{4-[(2-chloro-4-fluorophenyl)carbamoyl]bicyclo[2.2.2]oct-1-yl}imidazo[1,2-b]pyridazine-3-carboxamide], the pIC50 in test [1] (Homo sapiens, HEK293, 16 h) was 7.52; on TNKS2, 6.48.
For `O=C(NC12CCC(C(=O)Nc3c(F)cc(F)cc3Cl)(CC1)CC2)c1cnn2cccnc12` [Example 119, N-{4-[(2-chloro-4,6-difluorophenyl)carbamoyl]bicyclo[2.2.2]oct-1-yl}pyrazolo[1,5-a]pyrimidine-3-carboxamide], in that order: 6.41 and 6.21.
For `COC(C)(C)CNC(=O)c1nc[nH]c1C(=O)N[C@H]1CC[C@H](C(=O)Nc2cc(C(F)(F)F)ccc2Cl)CC1` [Example 144, N^5-(trans-4-{[2-chloro-5-(trifluoromethyl)phenyl]carbamoyl}cyclohexyl)-N^4-(2-methoxy-2-methylpropyl)-1H-imidazole-4,5-dicarboxamide], in that order: 6.60 and 6.64.
For `CNC(=O)c1nc[nH]c1C(=O)N[C@H]1CC[C@H](C(=O)Nc2ccc(C)cc2Cl)CC1` [Example 9, N^5-{trans-4-[(2-chloro-4-methylphenyl)carbamoyl]cyclohexyl}-N^4-methyl-1H-imidazole-4,5-dicarboxamide], the pIC50 in test [1] (Homo sapiens, HEK293, 16 h) was 6.74; on TNKS2, 6.96.
Take `CCNC(=O)c1[nH]cnc1C(=O)N[C@H]1CC[C@@]2(CCN(c3ccc(F)cc3Cl)C2=O)CC1` [Example 141, N^4-[(trans)-2-(2-chloro-4-fluorophenyl)-1-oxo-2-azaspiro[4.5]dec-8-yl]-N^5-ethyl-1H-imidazole-4,5-dicarboxamide]: the pIC50 in test [1] (Homo sapiens, HEK293, 16 h) was 8.74; against TNKS2, 8.19.
As for `O=C(NCCN1CCCCC1)c1nc[nH]c1C(=O)N[C@H]1CC[C@@]2(CCN(c3ccc(F)cc3Cl)C2=O)CC1` [Example 161, N^5-[(trans)-2-(2-chloro-4-fluorophenyl)-1-oxo-2-azaspiro[4.5]dec-8-yl]-N^4-[2-(piperidin-1-yl)ethyl]-1H-imidazole-4,5-dicarboxamide], the pIC50 in test [1] (Homo sapiens, HEK293, 16 h) was 7.26; against TNKS2, 8.80.
`CNC(=O)c1[nH]cnc1C(=O)NC1CCC(C(=O)Nc2ccc(F)cc2Cl)CC1OC` (stereo not drawn) [Example 37, N^4-{(1α,2β,4β)-4-[(2-chloro-4-fluorophenyl)carbamoyl]-2-methoxycyclohexyl}-N^5-methyl-1H-imidazole-4,5-dicarboxamide]: the pIC50 was 4.37 in test [1] and less than 5.00 on TNKS2.
Regarding `CNC(=O)c1nc[nH]c1C(=O)N[C@H]1CC[C@H](C(=O)N(CCO)c2ccc(F)cc2Cl)CC1` [Example 157, N^5-{trans-4-[(2-chloro-4-fluorophenyl)(2-hydroxyethyl)carbamoyl]cyclohexyl}-N^4-methyl-1H-imidazole-4,5-dicarboxamide], the pIC50 was 5.08 in test [1] (Homo sapiens, HEK293, 16 h) and 6.55 against TNKS2.
For `COCC(C)NC(=O)c1nc[nH]c1C(=O)N[C@H]1CC[C@H](C(=O)Nc2cc(C(F)(F)F)ccc2Cl)CC1` (stereo partly drawn) [Example 143, N^5-(trans-4-{[2-chloro-5-(trifluoromethyl)phenyl]carbamoyl}cyclohexyl)-N^4-(1-methoxypropan-2-yl)-1H-imidazole-4,5-dicarboxamide], in that order: 6.66 and 6.82.
For `Cc1cnc2c(C(=O)N[C@H]3CC[C@H](C(=O)Nc4ccncc4Cl)CC3)cnn2c1` [Example 104, N-{trans-4-[(3-chloropyridin-4-yl)carbamoyl]cyclohexyl}-6-methyl pyrazolo[1,5-a]pyrimidine-3-carboxamide], in that order: 7.06 and 7.18.
Turning to `Cc1c(C(C)N(C)C)cnc2c(C(=O)N[C@H]3CC[C@H](C(=O)Nc4ccc(F)cc4Cl)CC3)cnn12` (single isomer, unassigned) [Example 57, N-{trans-4-[(2-chloro-4-fluorophenyl)carbamoyl]cyclohexyl}-6-[1-(dimethylamino)ethyl]-7-methylpyrazolo[1,5-a]pyrimidine-3-carboxamide], the results for the pIC50 (in test [1]; against TNKS2) were 6.51 and 6.80, respectively.
`COCc1cc(C)nc2c(C(=O)N[C@H]3CC[C@H](C(=O)Nc4ccc(F)cc4Cl)CC3)cnn12` [Example 111, N-{trans-4-[(2-chloro-4-fluorophenyl)carbamoyl]cyclohexyl}-7-(methoxymethyl)-5-methylpyrazolo[1,5-a]pyrimidine-3-carboxamide]: the pIC50 in test [1] (Homo sapiens, HEK293, 16 h) was 7.14; at TNKS2, 6.68.
With `Cc1cc(C)n2ncc(C(=O)NC34CCC(C(=O)Nc5ccc(F)cc5Cl)(CC3)CC4)c2n1` [Example 125, N-{4-[(2-chloro-4-fluorophenyl)carbamoyl]bicyclo[2.2.2]oct-1-yl}-5,7-dimethylpyrazolo[1,5-a]pyrimidine-3-carboxamide], the pIC50 in test [1] (Homo sapiens, HEK293, 16 h) is 7.16; against TNKS2 it was 6.89.
For `CN(c1ccc(F)cc1Cl)C(=O)[C@H]1CC[C@H](NC(=O)c2cnn3cccnc23)CC1` [Example 155, N-{trans-4-[(2-chloro-4-fluorophenyl)(methyl)carbamoyl]cyclohexyl}pyrazolo[1,5-a]pyrimidine-3-carboxamide], in that order: 6.89 and 7.04.
For `O=C(NC12CCC(C(=O)Nc3ccc(F)cc3Cl)(CC1)CC2)c1cnn2cccnc12` [Example 117, N-{4-[(2-chloro-4-fluorophenyl)carbamoyl]bicyclo[2.2.2]oct-1-yl}pyrazolo[1,5-a]pyrimidine-3-carboxamide], in that order: 6.66 and 6.34.
For `O=C(NCC(F)(F)F)c1nc[nH]c1C(=O)N[C@H]1CC[C@H](C(=O)Nc2cc(N3CCOCC3)ccc2Cl)CC1` [Example 95, N^5-(trans-4-{[2-chloro-5-(morpholin-4-yl)phenyl]carbamoyl}cyclohexyl)-N^4-(2,2,2-trifluoroethyl)-1H-imidazole-4,5-dicarboxamide], in that order: 5.68 and 5.37.
As to `COC(C)(C)CNC(=O)c1nc[nH]c1C(=O)N[C@H]1CC[C@H](C(=O)Nc2cnccc2Cl)CC1` [Example 98, N^5-{trans-4-[(4-chloropyridin-3-yl)carbamoyl]cyclohexyl}-N^4-(2-methoxy-2-methylpropyl)-1H-imidazole-4,5-dicarboxamide], the pIC50 in test [1] (Homo sapiens, HEK293, 16 h) is 6.24; on TNKS2, 7.41.
